Experimental findings from ChEMBL document CHEMBL1909046, “DrugMatrix in vitro pharmacology data” are described below.

The target in the first assay is Vasopressin V1a receptor (Homo sapiens, UniProt P37288). Also: in other assays of this panel Not Active means under 50% inhibition at 10 µM.
Sequence of Vasopressin V1a receptor (P37288 whole entry): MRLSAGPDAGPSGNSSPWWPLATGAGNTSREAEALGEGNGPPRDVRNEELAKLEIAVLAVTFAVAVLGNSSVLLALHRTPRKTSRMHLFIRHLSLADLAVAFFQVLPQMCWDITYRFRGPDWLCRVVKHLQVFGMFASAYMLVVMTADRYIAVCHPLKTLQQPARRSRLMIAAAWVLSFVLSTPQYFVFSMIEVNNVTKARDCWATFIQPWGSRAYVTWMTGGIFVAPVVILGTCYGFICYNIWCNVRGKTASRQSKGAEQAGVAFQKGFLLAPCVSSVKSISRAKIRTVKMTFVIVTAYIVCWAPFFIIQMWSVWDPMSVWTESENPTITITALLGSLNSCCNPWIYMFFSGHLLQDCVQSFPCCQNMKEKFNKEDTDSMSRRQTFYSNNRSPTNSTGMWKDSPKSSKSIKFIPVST
Assay: not given
Type of assay: cell membranes, Membrane. Conditions: hek293.
Consider `O=C1c2c(O)ccc(O)c2C(=O)c2c(NCCNCCO)ccc(NCCNCCO)c21` [MITOXANTRONE], for which the IC50 entry is “Not Active”.
As for `CC(C)(C)NC(=O)[C@@H]1CN(Cc2cccnc2)CCN1C[C@@H](O)C[C@@H](Cc1ccccc1)C(=O)N[C@H]1c2ccccc2C[C@H]1O.O`, the IC50 result was “Not Active”.

The target in another assay is T1, C-C chemokine receptor type 4 (Homo sapiens, UniProt P51679). Also: in other assays of this panel Not Active means under 50% inhibition at 10 µM.
T1 sequence (P51679 whole entry): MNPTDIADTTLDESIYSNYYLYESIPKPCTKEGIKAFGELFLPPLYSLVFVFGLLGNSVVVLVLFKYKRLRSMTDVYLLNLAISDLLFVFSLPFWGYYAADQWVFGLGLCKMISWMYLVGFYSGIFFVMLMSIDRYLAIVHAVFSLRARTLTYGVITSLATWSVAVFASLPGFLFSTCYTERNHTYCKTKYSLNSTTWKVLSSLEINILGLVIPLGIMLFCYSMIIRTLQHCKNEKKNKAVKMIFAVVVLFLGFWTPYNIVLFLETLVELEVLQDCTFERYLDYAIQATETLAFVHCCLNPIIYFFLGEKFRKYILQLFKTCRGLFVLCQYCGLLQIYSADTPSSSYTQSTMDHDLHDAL
Assay: not given
In kind it is cell membranes, Membrane. The note with it: chem-1.
`O=C1c2c(O)ccc(O)c2C(=O)c2c(NCCNCCO)ccc(NCCNCCO)c21` [MITOXANTRONE]: the IC50 result is “Not Active”.
On to `CC(C)(C)NC(=O)[C@@H]1CN(Cc2cccnc2)CCN1C[C@@H](O)C[C@@H](Cc1ccccc1)C(=O)N[C@H]1c2ccccc2C[C@H]1O.O`, for which the IC50 result was “Not Active”.

Another assay deals with T2, C-X-C chemokine receptor type 2 (Homo sapiens, UniProt P25025).
T2 sequence (P25025 whole entry): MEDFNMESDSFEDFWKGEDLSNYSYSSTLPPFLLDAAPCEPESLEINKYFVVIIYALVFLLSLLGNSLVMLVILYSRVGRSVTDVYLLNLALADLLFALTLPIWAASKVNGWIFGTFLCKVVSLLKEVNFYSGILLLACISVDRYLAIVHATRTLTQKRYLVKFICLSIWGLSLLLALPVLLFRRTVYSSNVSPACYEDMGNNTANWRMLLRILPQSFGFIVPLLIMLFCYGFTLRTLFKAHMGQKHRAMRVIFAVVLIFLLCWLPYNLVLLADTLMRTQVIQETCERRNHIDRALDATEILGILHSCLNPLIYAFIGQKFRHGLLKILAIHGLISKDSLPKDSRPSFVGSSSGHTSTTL
Assay: not given
In kind it is cell membranes, Membrane. Conditions: cho-k1.
As for `O=C1c2c(O)ccc(O)c2C(=O)c2c(NCCNCCO)ccc(NCCNCCO)c21` [MITOXANTRONE], the IC50 entry is listed as “Not Active”.
Regarding `CC(C)(C)NC(=O)[C@@H]1CN(Cc2cccnc2)CCN1C[C@@H](O)C[C@@H](Cc1ccccc1)C(=O)N[C@H]1c2ccccc2C[C@H]1O.O`, the IC50 entry is on record as “Not Active”.

System in a further assay: not listed separately
In words: DRUGMATRIX: Glutamate, NMDA, Agonism radioligand binding (ligand: [3H] CGP-39653). In kind it is cell membranes, Rattus norvegicus, Wistar, Cerebral cortex, Membrane. The note with it: Not Active = under 50% inhibition at 10 µM.
Consider `O=C1c2c(O)ccc(O)c2C(=O)c2c(NCCNCCO)ccc(NCCNCCO)c21` [MITOXANTRONE], for which the IC50 result is “Not Active” and the Ki entry is reported as “Not Active”.
Regarding `CC(C)(C)NC(=O)[C@@H]1CN(Cc2cccnc2)CCN1C[C@@H](O)C[C@@H](Cc1ccccc1)C(=O)N[C@H]1c2ccccc2C[C@H]1O.O`, the IC50 result was “Not Active” and the Ki result was “Not Active”.

System in the next assay: not listed separately
In words: DRUGMATRIX: Glutamate, NMDA, Phencyclidine radioligand binding (ligand: [3H] TCP). Conditions: Not Active = under 50% inhibition at 10 µM. In kind it is cell membranes, Rattus norvegicus, Wistar, Cerebral cortex, Membrane.
`O=C1c2c(O)ccc(O)c2C(=O)c2c(NCCNCCO)ccc(NCCNCCO)c21` [MITOXANTRONE]: the IC50 result is listed as “Not Active” and the Ki result is reported as “Not Active”.
As to `CC(C)(C)NC(=O)[C@@H]1CN(Cc2cccnc2)CCN1C[C@@H](O)C[C@@H](Cc1ccccc1)C(=O)N[C@H]1c2ccccc2C[C@H]1O.O`, the IC50 result is listed as “Not Active” and the Ki entry is reported as “Not Active”.

The target of the next assay is T3, Leukotriene C4 synthase (Cavia porcellus, UniProt A6XA80).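 Also: enzyme inhibition assay of leukotriene C4 synthase, using LTA4 as the substrate; in other assays of this panel Not Active means under 50% inhibition at 10 µM.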
T3 sequence (A6XA80 whole entry): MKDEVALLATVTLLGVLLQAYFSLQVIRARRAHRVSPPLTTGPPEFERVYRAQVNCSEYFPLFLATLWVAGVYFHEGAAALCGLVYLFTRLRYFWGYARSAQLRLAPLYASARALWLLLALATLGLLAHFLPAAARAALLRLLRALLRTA
The assay is described as follows: biochemical. In kind it is tissue-based, Lung.
Settings: not given
As for `O=C1c2c(O)ccc(O)c2C(=O)c2c(NCCNCCO)ccc(NCCNCCO)c21` [MITOXANTRONE], the IC50 result was “Not Active”.
Take `CC(C)(C)NC(=O)[C@@H]1CN(Cc2cccnc2)CCN1C[C@@H](O)C[C@@H](Cc1ccccc1)C(=O)N[C@H]1c2ccccc2C[C@H]1O.O`: the IC50 entry is on record as “Not Active”.

The target in the next assay is T4, Cysteinyl leukotriene receptor 1 (Homo sapiens, UniProt Q9Y271). Also: in other assays of this panel Not Active means under 50% inhibition at 10 µM.
T4 sequence (Q9Y271 whole entry): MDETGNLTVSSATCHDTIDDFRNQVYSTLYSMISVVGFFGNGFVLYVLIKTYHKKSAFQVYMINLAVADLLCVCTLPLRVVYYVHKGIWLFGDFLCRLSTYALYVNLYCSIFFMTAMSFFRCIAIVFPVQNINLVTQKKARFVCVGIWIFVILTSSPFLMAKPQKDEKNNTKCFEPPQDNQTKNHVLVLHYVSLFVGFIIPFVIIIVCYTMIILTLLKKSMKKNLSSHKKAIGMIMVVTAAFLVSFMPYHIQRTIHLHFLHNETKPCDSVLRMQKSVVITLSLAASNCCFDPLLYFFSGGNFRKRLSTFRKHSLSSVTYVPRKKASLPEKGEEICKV
Assay: not given
Type of assay: cell membranes, CHO-K1, Membrane. Conditions: cho-k1.
With `O=C1c2c(O)ccc(O)c2C(=O)c2c(NCCNCCO)ccc(NCCNCCO)c21` [MITOXANTRONE], the IC50 result is reported as “Not Active”.
Still for that read-out and setting: for `CC(C)(C)NC(=O)[C@@H]1CN(Cc2cccnc2)CCN1C[C@@H](O)C[C@@H](Cc1ccccc1)C(=O)N[C@H]1c2ccccc2C[C@H]1O.O` the value was “Not Active”.

The next assay deals with T5, Neuropeptide Y receptor type 1 (Homo sapiens, UniProt P25929).
T5 sequence (P25929 whole entry): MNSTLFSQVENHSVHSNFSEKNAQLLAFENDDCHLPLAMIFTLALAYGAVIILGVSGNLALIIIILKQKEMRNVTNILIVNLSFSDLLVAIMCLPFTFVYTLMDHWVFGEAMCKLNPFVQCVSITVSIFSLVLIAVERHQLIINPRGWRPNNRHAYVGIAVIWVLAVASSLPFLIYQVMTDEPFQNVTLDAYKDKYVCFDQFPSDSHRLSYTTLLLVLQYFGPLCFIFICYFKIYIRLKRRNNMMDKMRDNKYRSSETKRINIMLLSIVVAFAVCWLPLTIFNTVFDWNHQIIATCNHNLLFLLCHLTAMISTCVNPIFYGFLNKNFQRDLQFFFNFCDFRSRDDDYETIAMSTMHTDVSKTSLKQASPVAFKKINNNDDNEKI
Assay: not given
In kind it is cell membranes, Membrane. The note with it: sk-n-mc.
`O=C1c2c(O)ccc(O)c2C(=O)c2c(NCCNCCO)ccc(NCCNCCO)c21` [MITOXANTRONE]: the IC50 entry is on record as “Not Active”.
For `CC(C)(C)NC(=O)[C@@H]1CN(Cc2cccnc2)CCN1C[C@@H](O)C[C@@H](Cc1ccccc1)C(=O)N[C@H]1c2ccccc2C[C@H]1O.O`, the IC50 result was “Not Active”.

System in a further assay: not listed separately
In words: DRUGMATRIX: Phorbol Ester radioligand binding (ligand: [3H] PDBu). The note with it: Not Active = under 50% inhibition at 10 µM. Type of assay: cell membranes, Mus musculus, ICR, Brain, Membrane.
For `O=C1c2c(O)ccc(O)c2C(=O)c2c(NCCNCCO)ccc(NCCNCCO)c21` [MITOXANTRONE], the IC50 entry is listed as “Not Active” and the Ki result is reported as “Not Active”.
On to `CC(C)(C)NC(=O)[C@@H]1CN(Cc2cccnc2)CCN1C[C@@H](O)C[C@@H](Cc1ccccc1)C(=O)N[C@H]1c2ccccc2C[C@H]1O.O`, for which the IC50 entry is reported as “Not Active” and the Ki result is given as “Not Active”.

The next assay addresses T6, Interstitial collagenase (Homo sapiens, UniProt P03956).
T6 sequence (P03956 whole entry): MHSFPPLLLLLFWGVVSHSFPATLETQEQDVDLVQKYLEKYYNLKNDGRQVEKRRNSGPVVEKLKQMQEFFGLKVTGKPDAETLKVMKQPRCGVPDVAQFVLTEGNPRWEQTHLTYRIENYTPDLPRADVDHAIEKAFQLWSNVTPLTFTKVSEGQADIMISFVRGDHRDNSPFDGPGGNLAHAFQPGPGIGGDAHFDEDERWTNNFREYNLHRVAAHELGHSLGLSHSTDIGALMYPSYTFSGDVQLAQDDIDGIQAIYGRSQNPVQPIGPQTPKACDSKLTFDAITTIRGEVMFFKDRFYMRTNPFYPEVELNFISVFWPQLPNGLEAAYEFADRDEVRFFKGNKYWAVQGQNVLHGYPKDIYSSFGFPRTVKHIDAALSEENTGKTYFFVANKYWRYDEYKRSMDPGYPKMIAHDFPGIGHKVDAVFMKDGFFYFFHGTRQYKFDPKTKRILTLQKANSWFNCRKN
Assay: not given
In kind it is tissue-based, Rheumatoid synovial fibroblasts.
Settings: not given
On to `O=C1c2c(O)ccc(O)c2C(=O)c2c(NCCNCCO)ccc(NCCNCCO)c21` [MITOXANTRONE], for which the IC50 entry is recorded as “Not Active”.
As for `CC(C)(C)NC(=O)[C@@H]1CN(Cc2cccnc2)CCN1C[C@@H](O)C[C@@H](Cc1ccccc1)C(=O)N[C@H]1c2ccccc2C[C@H]1O.O`, the IC50 result was “Not Active”.

The target of another assay is Mitogen-activated protein kinase 1 (Homo sapiens, UniProt P28482). In words: DRUGMATRIX: Protein Serine/Threonine Kinase, ERK2 enzyme inhibition (substrate: Myelin Basic Protein). Further details: species or system Escherichia coli. The note with it: Not Active = under 50% inhibition at 10 µM.
Sequence of Mitogen-activated protein kinase 1 (P28482 whole entry): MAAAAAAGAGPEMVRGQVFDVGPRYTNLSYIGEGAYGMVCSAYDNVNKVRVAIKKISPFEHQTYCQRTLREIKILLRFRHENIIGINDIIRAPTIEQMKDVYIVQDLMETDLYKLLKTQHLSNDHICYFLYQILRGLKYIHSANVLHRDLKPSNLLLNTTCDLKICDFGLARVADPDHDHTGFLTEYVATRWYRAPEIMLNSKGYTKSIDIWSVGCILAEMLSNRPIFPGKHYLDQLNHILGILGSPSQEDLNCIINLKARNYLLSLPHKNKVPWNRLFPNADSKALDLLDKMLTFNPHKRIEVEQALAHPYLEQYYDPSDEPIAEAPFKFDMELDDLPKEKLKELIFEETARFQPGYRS
For `O=C1c2c(O)ccc(O)c2C(=O)c2c(NCCNCCO)ccc(NCCNCCO)c21` [MITOXANTRONE], the IC50 result is listed as “Not Active”.
Consider `CC(C)(C)NC(=O)[C@@H]1CN(Cc2cccnc2)CCN1C[C@@H](O)C[C@@H](Cc1ccccc1)C(=O)N[C@H]1c2ccccc2C[C@H]1O.O`, for which the IC50 result is “Not Active”.

For a further assay, the target named is T7, Adenosine receptor A3 (Homo sapiens, UniProt P0DMS8).
T7 sequence (P0DMS8 whole entry): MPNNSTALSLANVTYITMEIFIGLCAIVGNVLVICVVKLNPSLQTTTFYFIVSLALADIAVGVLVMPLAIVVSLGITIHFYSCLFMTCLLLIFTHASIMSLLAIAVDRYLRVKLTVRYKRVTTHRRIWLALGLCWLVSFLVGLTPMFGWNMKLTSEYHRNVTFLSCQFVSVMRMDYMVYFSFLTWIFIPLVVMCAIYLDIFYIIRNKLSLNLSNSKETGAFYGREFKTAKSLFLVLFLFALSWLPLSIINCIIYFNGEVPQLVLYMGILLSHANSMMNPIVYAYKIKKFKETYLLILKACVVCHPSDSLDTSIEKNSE
Assay: not given
Type of assay: cell membranes, CHO-K1, Membrane. The note with it: cho-k1.
Consider `O=C1c2c(O)ccc(O)c2C(=O)c2c(NCCNCCO)ccc(NCCNCCO)c21` [MITOXANTRONE], for which the IC50 result is listed as “Not Active”.
Turning to `CC(C)(C)NC(=O)[C@@H]1CN(Cc2cccnc2)CCN1C[C@@H](O)C[C@@H](Cc1ccccc1)C(=O)N[C@H]1c2ccccc2C[C@H]1O.O`, the IC50 result was “Not Active”.
